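A five-concentration, 48-hour dose response in 96-well plates underlies each endpoint, interpolated linearly between surrounding concentrations. At the TGI there is no net growth.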
Columns and labels:
Assay in all cases: growth of human tumour cells (NCI), 48 h
HOP-18 NSCLC = test system: HOP-18 NSCLC
NCI-H522 lung = test system: NCI-H522 lung
XF 498 CNS = test system: XF 498 CNS
TK-10 renal = test system: TK-10 renal
DLD-1 colon = test system: DLD-1 colon
SNB-19 CNS = test system: SNB-19 CNS
UO-31 renal = test system: UO-31 renal
SF-268 CNS = test system: SF-268 CNS
HCT-15 colon = test system: HCT-15 colon
SK-MEL-2 melanoma = test system: SK-MEL-2 melanoma
IGROV1 ovarian = test system: IGROV1 ovarian
786-0 renal = test system: 786-0 renal
OVCAR-4 ovarian = test system: OVCAR-4 ovarian
COLO 205 colon = test system: COLO 205 colon
K-562 leukemia = test system: K-562 leukemia
CCRF-CEM leukemia = test system: CCRF-CEM leukemia
A549 NSCLC = test system: A549 NSCLC
SF-295 CNS = test system: SF-295 CNS
U251 CNS = test system: U251 CNS
HCT-116 colon = test system: HCT-116 colon
RXF 393 renal = test system: RXF 393 renal
NCI-H23 lung = test system: NCI-H23 lung
M19-MEL melanoma = test system: M19-MEL melanoma
NCI-H460 lung = test system: NCI-H460 lung
SNB-78 CNS = test system: SNB-78 CNS
HL-60(TB) leukemia = test system: HL-60(TB) leukemia
MOLT-4 leukemia = test system: MOLT-4 leukemia
LOX IMVI melanoma = test system: LOX IMVI melanoma
EKVX NSCLC = test system: EKVX NSCLC
RXF-631 renal = test system: RXF-631 renal
CAKI-1 renal = test system: CAKI-1 renal
OVCAR-3 ovarian = test system: OVCAR-3 ovarian
OVCAR-5 ovarian = test system: OVCAR-5 ovarian
LXFL 529 NSCLC = test system: LXFL 529 NSCLC
DMS 273 small cell lung = test system: DMS 273 small cell lung
ACHN renal = test system: ACHN renal
SN12C renal = test system: SN12C renal
A498 renal = test system: A498 renal
NCI-H226 lung = test system: NCI-H226 lung
HT29 colon = test system: HT29 colon
HOP-62 NSCLC = test system: HOP-62 NSCLC
UACC-257 melanoma = test system: UACC-257 melanoma
SK-MEL-5 melanoma = test system: SK-MEL-5 melanoma
HOP-92 NSCLC = test system: HOP-92 NSCLC
MALME-3M melanoma = test system: MALME-3M melanoma
SF-539 CNS = test system: SF-539 CNS
OVCAR-8 ovarian = test system: OVCAR-8 ovarian
SR leukemia = test system: SR leukemia
M14 melanoma = test system: M14 melanoma
SK-OV-3 ovarian = test system: SK-OV-3 ovarian
HCC-2998 colon = test system: HCC-2998 colon
UACC-62 melanoma = test system: UACC-62 melanoma
SNB-75 CNS = test system: SNB-75 CNS
KM20L2 colon = test system: KM20L2 colon
KM12 colon = test system: KM12 colon
SK-MEL-28 melanoma = test system: SK-MEL-28 melanoma
DMS 114 small cell lung = test system: DMS 114 small cell lung
RPMI-8226 leukemia = test system: RPMI-8226 leukemia
SW-620 colon = test system: SW-620 colon

Measured: TGI

O=C1C2=C(CC3C(C2)C3(Br)Br)C(=O)C2=C1CC1C(C2)C1(Br)Br (stereo not given)
> 100 µM: HOP-18 NSCLC | NCI-H522 lung | XF 498 CNS | TK-10 renal | DLD-1 colon | SNB-19 CNS | UO-31 renal | SF-268 CNS | HCT-15 colon | SK-MEL-2 melanoma | IGROV1 ovarian | 786-0 renal | OVCAR-4 ovarian | COLO 205 colon | K-562 leukemia | CCRF-CEM leukemia | A549 NSCLC | SF-295 CNS | U251 CNS | HCT-116 colon | RXF 393 renal | NCI-H23 lung | M19-MEL melanoma | NCI-H460 lung | SNB-78 CNS | HL-60(TB) leukemia | MOLT-4 leukemia | LOX IMVI melanoma | EKVX NSCLC | RXF-631 renal | CAKI-1 renal | OVCAR-3 ovarian | OVCAR-5 ovarian | LXFL 529 NSCLC | DMS 273 small cell lung | ACHN renal | SN12C renal | A498 renal | NCI-H226 lung | HT29 colon | HOP-62 NSCLC | UACC-257 melanoma | SK-MEL-5 melanoma | HOP-92 NSCLC | MALME-3M melanoma | SF-539 CNS | OVCAR-8 ovarian | SR leukemia | M14 melanoma | SK-OV-3 ovarian | HCC-2998 colon | UACC-62 melanoma | SNB-75 CNS | KM20L2 colon | KM12 colon | SK-MEL-28 melanoma

CC(=O)c1ccc(NC(=O)/C(Cc2ccccn2)=N/NC(=O)C[N+](C)(C)C)cc1
> 100 µM: HOP-18 NSCLC | NCI-H522 lung | TK-10 renal | DLD-1 colon | SNB-19 CNS | UO-31 renal | SF-268 CNS | HCT-15 colon | DMS 114 small cell lung | SK-MEL-2 melanoma | IGROV1 ovarian | 786-0 renal | OVCAR-4 ovarian | COLO 205 colon | K-562 leukemia | CCRF-CEM leukemia | A549 NSCLC | SF-295 CNS | U251 CNS | HCT-116 colon | RXF 393 renal | NCI-H23 lung | M19-MEL melanoma | NCI-H460 lung | SNB-78 CNS | HL-60(TB) leukemia | MOLT-4 leukemia | LOX IMVI melanoma | EKVX NSCLC | RXF-631 renal | CAKI-1 renal | OVCAR-3 ovarian | OVCAR-5 ovarian | LXFL 529 NSCLC | DMS 273 small cell lung | ACHN renal | SN12C renal | A498 renal | NCI-H226 lung | HT29 colon | HOP-62 NSCLC | UACC-257 melanoma | SK-MEL-5 melanoma | MALME-3M melanoma | SF-539 CNS | OVCAR-8 ovarian | RPMI-8226 leukemia | SR leukemia | M14 melanoma | SK-OV-3 ovarian | HCC-2998 colon | UACC-62 melanoma | SNB-75 CNS | KM20L2 colon | KM12 colon | SW-620 colon | SK-MEL-28 melanoma

NCC(=O)NC(CCCC(NC(=O)CN)P(=O)(O)O)P(=O)(O)O (stereo not given)
> 100 µM: NCI-H522 lung | TK-10 renal | DMS 114 small cell lung | IGROV1 ovarian | CCRF-CEM leukemia | A549 NSCLC | SF-295 CNS | U251 CNS | HCT-116 colon | RXF 393 renal | NCI-H23 lung | M19-MEL melanoma | NCI-H460 lung | SNB-78 CNS | HL-60(TB) leukemia | MOLT-4 leukemia | EKVX NSCLC | RXF-631 renal | OVCAR-5 ovarian | DMS 273 small cell lung | ACHN renal | A498 renal | NCI-H226 lung | HT29 colon | HOP-62 NSCLC | UACC-257 melanoma | HOP-92 NSCLC | OVCAR-8 ovarian | SR leukemia | M14 melanoma | SK-OV-3 ovarian | UACC-62 melanoma | KM20L2 colon | KM12 colon | SK-MEL-28 melanoma

CCOCNC(=O)N(COCC)COCC
> 100 µM: NCI-H522 lung | XF 498 CNS | DLD-1 colon | SNB-19 CNS | UO-31 renal | SF-268 CNS | HCT-15 colon | DMS 114 small cell lung | SK-MEL-2 melanoma | IGROV1 ovarian | COLO 205 colon | K-562 leukemia | CCRF-CEM leukemia | A549 NSCLC | SF-295 CNS | HCT-116 colon | M19-MEL melanoma | SNB-78 CNS | HL-60(TB) leukemia | MOLT-4 leukemia | LOX IMVI melanoma | EKVX NSCLC | RXF-631 renal | CAKI-1 renal | OVCAR-3 ovarian | OVCAR-5 ovarian | LXFL 529 NSCLC | ACHN renal | SN12C renal | A498 renal | NCI-H226 lung | HT29 colon | HOP-62 NSCLC | UACC-257 melanoma | MALME-3M melanoma | SF-539 CNS | OVCAR-8 ovarian | RPMI-8226 leukemia | M14 melanoma | SK-OV-3 ovarian | HCC-2998 colon | UACC-62 melanoma | SNB-75 CNS | KM20L2 colon | KM12 colon | SW-620 colon | SK-MEL-28 melanoma

From PubChem BioAssay (NCI)
